Laboratory results from patent US20130210034A1, “COMPLEX PHOSPHOPROTEIN ACTIVATION PROFILES” (BECKMAN COULTER, INC., priority 2005, published 2013).

Tests used:
pERK = assay: Phosphoprotein kinetic profiles in bone marrow samples from healthy donors; type: cell-based, human; details: 100 μM U0126 pre-incubation; healthy donor CD34^+, CD117^+ cells
Method: (§1) Phosphoprotein kinetic profiles were analyzed in bone marrow aspiration samples from nine healthy, adult donors (i.e., normal bone marrow or NBM) and from five AML patients. Samples from healthy donors included 5 males and 4 females, ranging in age from 26 to 49 years. Approximately 10 to 20 mL of bone marrow (BM) samples were collected from the posterior iliac crest of the volunteers using IRB approved protocols. The BM samples were filtered using a 40 μm Nylon cell strainer to remove marrow particles and the white blood cell concentration determined using a blood analyzer. […] The samples were immediately used for subsequent experimentation.
(§2) To assess the signal transduction response after growth factor simulation, 100 to 200 μL of processed samples including about 2×10^6 WBC/100 μL were added to tubes and incubated at 37° C. for 30 minutes. For inhibition experiments, cells were incubated with 100 μM U0126, 1 μg/mL rapamycin, or both for at least 20 minutes prior to cytokine addition and in all cases for 30 min prior to formaldehyde addition. […] After stimulation the cells were immediately fixed by the addition of formaldehyde to a final concentration of 4% v/v and incubated for 10 minutes at room temperature. Following fixation, red blood cells were lysed by the addition of TRITON-X/PBS solution (0.1% v/v final concentration Triton X-100) supplemented with a 1 x phosphatase inhibitor cocktail (PIC; final concentrations: 0.2 mM sodium orthovanadate, 2 mM sodium pyrophosphate decahydrate, 2 mM [3-glycerophosphate, and 10 mM sodium fluoride) and incubation at 37° C. for 20 minutes. The incubated solution was chilled by the addition of ice-cold Wash Buffer (final concentration 1×PBS and either 4% bovine serum albumin (BSA) or 4% heat-inactivated fetal bovine serum (FBS), supplemented with 1×PIC), and the samples were centrifuged at 300 g for 6 minutes at 4° C.). If the lysis was incomplete, samples were retreated with 0.1% Triton X-100 at 37° C. for 10 to 20 minutes. After removal of the supernatant, cells were washed twice in ice-cold Wash Buffer supplemented with 1×PIC and permeabilized by the addition of pre-chilled 80% methanol while simultaneously vortexing the tube and incubated on ice for 10 minutes. Methanol was removed by centrifugation, the pellet was washed with ice-cold 1×PBS, and non-specific binding was blocked by the addition of ice-cold Wash Buffer supplemented with 1×PIC and incubation at 4° C. for a minimum of 30 minutes.
(§3) To stain cells with fluorescent conjugated monoclonal antibodies, the incubated solution was centrifuged to remove the supernatant and the pellet was incubated for 60 minutes at 4° C. with an antibody staining solution including 0.25 μg to 0.50 μg of pS6-Pacific Blue, pERK-ALEXA 488, pSTAT5-ALEXA 647, CD34-PE, CD45-PerCP, and CD117-PC7. Samples were washed three times with ice-cold Wash Buffer supplemented with 1×PIC, resuspended in 0.5 mL ice-cold Wash Buffer supplemented with 1×PIC including 0.5 μg/mL DAPI, and analyzed by flow cytometryusing a BD LSR II Flow Cytometer, equipped with a High Throughput Sampler (HTS).
(§4) First, doublets, aggregates, and debris were excluded by gating on single cell events in the SSC-Area versus SSC-Height histogram. Then, in events passing through this gate, debris near the origin of the FSC-Area versus SSC-Area plot (gray in FIG. 4A) was excluded by drawing a gate around an area encompassing, primarily, lymphocytes, monocytes, and granulocytes (LMG, black in FIG. 4A). Next, in cells passing through the LMG gate, the blast region (circle in FIG. 4B) was identified in the CD45 versus SSC-Area histogram (FIG. 4B). From this blast population, CD34+, CD117+ cells were identified in the CD34 versus CD117 plot (boxed area in FIG. 4C).

pS6 = assay: as above; type: cell-based, human; details: at 4 min; 100 μM U0126
Method: as §1, §2, §3, §4

## N#CC(=C(/N)Sc1ccccc1N)/C(C#N)=C(\N)Sc1ccccc1N [U0126, reference compound]
pERK
  Inhibition of SCF-stimulated ERK phosphorylation: completely inhibited
pS6
  Inhibition of SCF-stimulated S6 phosphorylation: partially blocked
